Patent US20130280235A1, “METHODS OF DIAGNOSIS AND TREATMENT FOR METABOLIC DISORDERS” (DiaMedica Inc., priority 2006, published 2013)

How the values were obtained:
Wistar rats = experiment: Oral glucose challenge (2 g/kg) in fasted rats, serum glucose by enzymatic method (Mutaratase-GOD); type: in vivo, rat; conditions: male Wistar rats; for Blood Glucose at T0: fasted, agent given one hour before, sample immediately prior to oral glucose loading; for Blood Glucose at T90: 90 minutes post oral glucose challenge 2 g/kg; for Change in Blood Glucose: T0 to T90 after oral glucose 2 g/kg
Procedure: Groups of 5 male Wistar rats weighing 200+/−10 g were employed. Fasted animals were injected with agent or placebo (GLP-1, 1 nmole/kg, iv) and/or gavaged with agent or placebo (tissue kallikrein (SIGMA), 200 U) one hour prior to glucose challenge. A blood sample was taken immediately prior oral glucose loading (2 g/kg). At 90 minutes post glucose challenge a second blood sample was taken. The serum glucose samples were assessed by enzymatic method (Mutaratase-GOD) for the time points.

Sprague-Dawley rats = experiment: Euglycemic hyperinsulinemic clamp in rats made insulin resistant by a high-sucrose diet; type: in vivo, rat; conditions: up to one unit by bolus IV injection, last hour of 2 h clamp, versus saline controls
Procedure: A litter of 14 Sprague-Dawley rats, (from Charles River, St-Constant, Canada), obtained at 5 weeks old are accommodated individually in cages. The animals are acclimatized to a temperature of 22° C.+/−1° C. and constant humidity and airflow conditions. The animals are fed a high sucrose diet. During the 2 weeks prior to experimentation, the animals have free access to tap water, are provided their controlled diet and their body weight and food intake are recorded every other day. The high-sucrose diet consists of 62.5% (wt/wt) sucrose, 6.5% corn oil, 20% protein (casein, purified high nitrogen), 0.3% dl-methionine, 1% vitamin mix, 4.7% mineral mix and 5% cellulose. The energy density of the high-sucrose diet is 16.81 kJ/g. This high-sucrose diet induces insulin resistance. […]
Analytical Methods—The rats are anesthetized and venous blood samples are taken for plasma glucose and insulin assessment and rapidly centrifuged. […] Resting heart rate, blood pressure and regional blood flows are recorded over 30 minutes in quiet, unrestrained and unsedated rats.
Euglycemic Clamp Methodology—All rats receive an infusion of regular porcine insulin at a rate of 16 mU·kg^−1·min^−1 for 2 hours. […] The Euglycemic hyperinsulinemic clamp is performed over 2 hours, while blood pressure, heart rate, and regional blood flow is measured continuously with blood samples. […]

Substance | Blood Glucose at T0 (Wistar rats) [mg/dL] | Blood Glucose at T90 (Wistar rats) [mg/dL] | Change in Blood Glucose (Wistar rats) [mg/dL] | Area under the curve of glucose required to maintain euglycemia (index of insulin sensitivity) (Sprague-Dawley rats)
glucagon like peptide 1 [GLP-1] | 110 | 216 | 116.1 ± 18.1 | 
kallikrein |  |  |  | greater area under the curve
tissue kallikrein [tissue kallkrein] | 109 | 229 | 120.2 ± 20.7 | 
